The record followed here is ChEMBL document CHEMBL1129281, “Effect of linking bridge modifications on the antipsychotic profile of some phthalimide and isoindolinone derivatives” (J Med Chem, 1996).

As a reminder, the IC50 is the concentration at which inhibition is half-maximal. Read a low IC50 as higher potency. Usually ED50 stands for the midpoint of the dose-response relation.

Test [1] concerns the target Serotonin 2 (5-HT2) receptor (Rattus norvegicus, UniProt P30994+P08909+P14842). The test is described as follows: Inhibition of [3H]ketanserin binding at 5-hydroxytryptamine 2 receptor from rat frontal cortex.
The test system of a further test is Mus musculus. The test is described as follows: In vivo inhibition of apomorphine-induced climbing response in mice. Type of test: functional.
For test [2], the target named is T1, 5-hydroxytryptamine receptor 1A (Rattus norvegicus, UniProt P19327).
T1 sequence (P19327 whole entry): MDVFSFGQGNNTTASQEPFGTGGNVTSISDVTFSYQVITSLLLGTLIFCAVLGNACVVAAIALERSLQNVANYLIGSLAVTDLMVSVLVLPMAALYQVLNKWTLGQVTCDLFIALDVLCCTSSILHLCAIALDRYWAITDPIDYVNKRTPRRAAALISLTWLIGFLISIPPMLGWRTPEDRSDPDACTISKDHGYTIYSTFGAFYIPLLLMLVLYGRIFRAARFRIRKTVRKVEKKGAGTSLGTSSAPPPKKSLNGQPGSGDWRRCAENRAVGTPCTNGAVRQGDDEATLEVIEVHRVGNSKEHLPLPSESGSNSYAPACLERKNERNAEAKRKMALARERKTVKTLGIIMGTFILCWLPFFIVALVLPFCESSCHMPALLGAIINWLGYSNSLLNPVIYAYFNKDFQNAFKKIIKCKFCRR
The test is described as follows: Inhibition of [3H]8-OH-DPAT binding at serotonin 5-hydroxytryptamine 1A receptor from rat hippocampus tissue. Type of test: tissue-based.

For the compound `O=C1c2ccccc2CN1CCOCCN1CCN(c2nsc3ccccc23)CC1`, the half-maximal inhibitory concentration (IC50) in test [1] was 1.7 nM. Besides, the ED50 in the test with Mus musculus is more than 25 mg/kg.
On to `O=C1c2ccccc2C(=O)N1CC1CC1CN1CCN(c2nsc3ccccc23)CC1` (configuration not stated), for which the IC50 in test [1] is 4 nM; in test [2], 19 nM. Further, the ED50 in the test on Mus musculus turned out to be 22.9 mg/kg.
Regarding `O=C1c2ccccc2C(=O)N1CCN1CCN(c2nsc3ccccc23)CC1`, the values for the half-inhibitory concentration (IC50) in test [1] and in test [2] were 30 nM and 54 nM, respectively. The compound also registered an ED50 in the test on Mus musculus of more than 25 mg/kg.
Compound `O=C1c2ccccc2C(=O)N1CCCCN1CCN(c2nsc3ccccc23)CC1` had a median effective dose (ED50) in the test on Mus musculus of 1.1 mg/kg.
Take `O=C1c2ccccc2C(=O)N1C/C=C/CN1CCN(c2nsc3ccccc23)CC1`: the IC50 amounted to 0.78 nM in test [1] and 4.7 nM in test [2]. Also, in the test on Mus musculus, it took a dose of 12.7 mg/kg to reach the 50% effect level (ED50).
With `O=C1c2ccccc2CN1C/C=C/CN1CCN(c2nsc3ccccc23)CC1`, the IC50 in test [1] was 1.7 nM. The compound also gave a median effective dose (ED50) in the test on Mus musculus of 17.6 mg/kg.
Regarding `O=C1c2ccccc2CN1CCN1CCN(c2nsc3ccccc23)CC1`, the IC50 in test [1] came to 9.8 nM; in test [2], 40 nM. For the same compound, the median effective dose (ED50) in the test on Mus musculus was more than 25 mg/kg.
In the case of `O=C1c2ccccc2C(=O)N1CCOCCN1CCN(c2nsc3ccccc23)CC1`, the half-maximal inhibitory concentration (IC50) was 5.4 nM in test [1] and 54 nM in test [2]. In the test with Mus musculus, this compound had an ED50 of more than 25 mg/kg.
As to `O=C1c2ccccc2C(=O)N1CCCN1CCN(c2nsc3ccccc23)CC1`, the IC50 was found to be 6 nM in test [1] and 13 nM in test [2]. Besides, the ED50 in the test with Mus musculus was more than 25 mg/kg.
For `O=C1c2ccccc2CN1C1CCC(N2CCN(c3nsc4ccccc34)CC2)CC1` (configuration not stated) the same measures were 120 nM, 140 nM and 11.7 mg/kg.
For `O=C1c2ccccc2C(=O)N1CCCCCN1CCN(c2nsc3ccccc23)CC1`, the IC50 in test [1] is 1.8 nM; in test [2], 2 nM. In addition, in the test on Mus musculus, the ED50 worked out at 27 mg/kg.
For `O=C1c2ccccc2CN1CCCCN1CCN(c2nsc3ccccc23)CC1`, the ED50 in the test on Mus musculus worked out at 6.8 mg/kg.
With `O=C1c2ccccc2CN1CCCCCN1CCN(c2nsc3ccccc23)CC1`, the concentration for half-maximal inhibition (IC50) in test [1] was 2.2 nM; in test [2] it was 2.7 nM. The compound also came in with an ED50 in the test with Mus musculus of 20 mg/kg.
Consider `O=C1c2ccccc2C(=O)N1C/C=C\CN1CCN(c2nsc3ccccc23)CC1`, for which the IC50 in test [1] is 3.2 nM; in test [2], 24 nM. The same compound showed an ED50 with Mus musculus of more than 25 mg/kg.
`O=C1c2ccccc2CN1C/C=C\CN1CCN(c2nsc3ccccc23)CC1`: the IC50 in test [1] is 5.5 nM. Moreover, the ED50 with Mus musculus came to 13.9 mg/kg.
Regarding `O=C1c2ccccc2C(=O)N1CC#CCN1CCN(c2nsc3ccccc23)CC1`, the IC50 is 43 nM in test [1] and 420 nM in test [2]. In addition, the ED50 with Mus musculus is more than 25 mg/kg.
With `O=C1c2ccccc2CN1CCCN1CCN(c2nsc3ccccc23)CC1`, the IC50 was 13 nM in test [1] and 390 nM in test [2]. In the test with Mus musculus, this compound gave an ED50 of more than 25 mg/kg.
`O=C1c2ccccc2CN1CC#CCN1CCN(c2nsc3ccccc23)CC1` showed a concentration for half-maximal inhibition (IC50) in test [1] of 18 nM. Besides, the ED50 in the test with Mus musculus was more than 25 mg/kg.
On to `O=C(CCCN1CCC(O)(c2ccc(Cl)cc2)CC1)c1ccc(F)cc1` [HALOPERIDOL], for which the ED50 in the test with Mus musculus was found to be 2 mg/kg.
